Experimental findings from PMC7397269, “Synthesis and Evaluation of New Coumarin Derivatives as Antioxidant, Antimicrobial, and Anti-Inflammatory Agents” (Molecules, 2020) are described below.

Converted amounts (≈) assume the structure as drawn. A value given as a limit tells only on which side of the number the result lay.

In general, zone of inhibition refers to the extent of the growth-free halo in a diffusion test. One may read the IC50 as the concentration that gives 50% inhibition. As a reminder, the melting point is the temperature of the solid-liquid transition.

Data set [1] deals with tested microorganisms. Put plainly: Agar well diffusion, summary over the tested microorganisms. The data set is classed as cell-based. The note with it: all tested microorganisms. The text has this:
The new molecules were individually tested for their antimicrobial activity in vitro against standard bacteria strains from the American Type Culture Collection (ATCC), namely, Staphylococcus aureus ATCC 29213, Bacillus subtilis ATCC 6633, Bacillus megaterium ATCC 9885 (Gram-positive), Escherichia coli ATCC 2592, and Pseudomonas aeruginosa ATCC 27,953 (Gram-negative). The compounds were also microbiologically tested against locally isolated Saccharomyces cerevisiae (yeast) and the standard Agricultural Research Service Culture Collection (NRRL) strain of the yeast-like pathogenic fungus Candida albicans NRRL Y-477. Primary screening was conducted using the agar well diffusion method using nutrient agar (NA) medium and Sabourand dextrose agar (SDA) medium for the tested pathological bacteria and yeast, respectively. […].
Antimicrobial tests were conducted via the agar well diffusion method using 100 μL of suspension containing 1 × 10^8 CFU/mL pathological tested bacteria and 1 × 10^6 CFU/mL yeast spread on NA and SDA, respectively. […] After incubation, antimicrobial activity was evaluated by measuring the zone of inhibition against the test organisms and compared with that of the standard. Antimicrobial activities were expressed as the diameter of the inhibition zone (IZ) in mm. The experiment was carried out in triplicate and the average zone of inhibition was calculated.
For orientation: In agar diffusion tests the substance spreads into inoculated agar from a disc or well.

Data set [2] relates to Bacillus subtilis ATCC 6633. Put plainly: Agar well diffusion, B. subtilis. The data set is classed as cell-based. The note with it: ATCC6633, 100 μL of 10 mg/mL in DMSO, read-out: diameter of inhibition zone, BS. The procedure, abridged:
(§1)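 Agar well diffusion; NA for bacteria, SDA for yeast; inoculum 1 × 10^8 CFU/mL bacteria, 1 × 10^6 CFU/mL yeast. 100 μL of 10 mg/mL compound in DMSO per 10 mm well. 24 h, 37 °C; zone diameter, mm, n=3.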

The target of data set [3] is T1, COX-2 (Homo sapiens, UniProt P35354).
T1 construct: purchased Cayman Chemical 701080
T1 sequence (P35354 18-604): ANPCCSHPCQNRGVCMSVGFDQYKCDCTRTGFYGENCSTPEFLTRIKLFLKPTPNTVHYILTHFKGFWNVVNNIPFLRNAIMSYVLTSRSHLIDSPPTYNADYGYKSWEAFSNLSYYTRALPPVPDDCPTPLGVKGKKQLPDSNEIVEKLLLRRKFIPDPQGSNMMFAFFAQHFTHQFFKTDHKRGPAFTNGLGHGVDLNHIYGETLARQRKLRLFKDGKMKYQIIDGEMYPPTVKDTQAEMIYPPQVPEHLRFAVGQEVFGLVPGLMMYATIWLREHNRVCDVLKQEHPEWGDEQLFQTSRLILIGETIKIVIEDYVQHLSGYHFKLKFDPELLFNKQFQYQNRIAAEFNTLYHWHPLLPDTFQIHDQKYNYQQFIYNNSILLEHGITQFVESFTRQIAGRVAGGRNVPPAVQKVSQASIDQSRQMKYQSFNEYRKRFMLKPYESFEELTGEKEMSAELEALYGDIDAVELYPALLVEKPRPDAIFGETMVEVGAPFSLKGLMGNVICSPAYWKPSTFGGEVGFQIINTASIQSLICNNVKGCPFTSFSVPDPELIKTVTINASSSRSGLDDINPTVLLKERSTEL
Put plainly: COX-2 inhibition, Cayman assay kit. It counts as biochemical.

The test system of data set [4] is Staphylococcus aureus ATCC 29213. Put plainly: Agar well diffusion, S. aureus. The data set is classed as cell-based. The note with it: ATCC29213, 100 μL of 10 mg/mL in DMSO, read-out: diameter of inhibition zone, SA. The gist of the method:
as §1

Data set [5] has as its system Escherichia coli ATCC 2592. Put plainly: Agar well diffusion, E. coli. The data set is classed as cell-based. The note with it: ATCC2592, 100 μL of 10 mg/mL in DMSO, read-out: diameter of inhibition zone, EC. The procedure, abridged:
as §1

Data set [6] relates to Saccharomyces cerevisiae local isolate. The data set can be described thus: Agar well diffusion, S. cerevisiae. The data set is classed as cell-based. The note with it: well diffusion, 100 μL of 10 mg/mL in DMSO, S. cerevisiae, read-out: diameter of inhibition zone, SC. The gist of the method: as §1
The test system of data set [7] is Bacillus megaterium ATCC 9885. The data set can be described thus: Agar well diffusion, B. megaterium. The data set is classed as cell-based. The note with it: Priestia megaterium, ATCC9885, 100 μL of 10 mg/mL in DMSO, read-out: diameter of inhibition zone, BM. The procedure, abridged: as §1
The test system of data set [8] is Pseudomonas aeruginosa ATCC 27,953. Put plainly: Agar well diffusion, P. aeruginosa. The data set is classed as cell-based. The note with it: ATCC27, 100 μL of 10 mg/mL in DMSO, read-out: diameter of inhibition zone, PA. The gist of the method:
as §1

The target of data set [9] is T2, COX-1 (Homo sapiens, UniProt P23219).
T2 construct: purchased Cayman Chemical 701070
T2 sequence (P23219 24-599): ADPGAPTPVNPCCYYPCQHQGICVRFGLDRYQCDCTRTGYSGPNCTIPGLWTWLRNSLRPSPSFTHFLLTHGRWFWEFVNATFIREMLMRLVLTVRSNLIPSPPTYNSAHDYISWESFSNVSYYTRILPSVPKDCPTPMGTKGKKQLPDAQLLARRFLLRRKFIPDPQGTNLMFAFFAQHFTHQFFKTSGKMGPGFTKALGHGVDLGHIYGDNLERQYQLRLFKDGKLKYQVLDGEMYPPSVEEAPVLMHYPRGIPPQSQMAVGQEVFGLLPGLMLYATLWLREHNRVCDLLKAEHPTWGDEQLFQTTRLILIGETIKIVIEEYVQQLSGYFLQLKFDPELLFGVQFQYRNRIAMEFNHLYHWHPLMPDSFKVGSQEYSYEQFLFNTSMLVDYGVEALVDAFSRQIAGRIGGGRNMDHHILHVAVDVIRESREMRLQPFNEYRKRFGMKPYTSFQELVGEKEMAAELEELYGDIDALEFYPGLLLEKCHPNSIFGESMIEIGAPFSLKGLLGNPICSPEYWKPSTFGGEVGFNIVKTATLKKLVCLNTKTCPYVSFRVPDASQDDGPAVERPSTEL
The data set can be described thus: COX-1 inhibition, Cayman assay kit. The note with it: mean of two determinations. It counts as biochemical.

The test system of data set [10] is trypsin. The data set can be described thus: Proteinase-inhibitory activity. It counts as biochemical. The conditions noted are these: 250 µg/mL; mean ± SD (n = 3). The procedure, abridged:
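Trypsin (0.06 mg per 2 mL, 20 mM Tris-HCl pH 7.4) was preincubated 5 min with test sample at 250 µg/mL, then 0.8% casein was added for 20 min. Perchloric acid stopped the reaction and supernatant absorbance was read at 280 nm. % inhibition is relative to the no-sample control, in triplicate.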

A short description of data set [11]: DPPH antioxidant assay (radical scavenging). It counts as biochemical. The conditions noted are these: mean ± SD (n = 3). The gist of the method:
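Compounds, starting at 200 μg/mL, were mixed with 0.2 mM methanolic DPPH and incubated 30 min in the dark at 25 °C; absorbance was read at 515 nm. % inhibition is background-corrected against DPPH-only control, with IC50 from curve fit. Runs were triplicate (mean ± SD), with ascorbic acid as positive control.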
Background: Loss of DPPH colour is used to gauge radical scavenging.

The subject of data set [12] is Candida albicans NRRL Y-477. Put plainly: Agar well diffusion, C. albicans. It counts as cell-based. The conditions noted are these: NRRLY477, 100 μL of 10 mg/mL in DMSO, read-out: diameter of inhibition zone, CA. The gist of the method:
as §1

In the case of `Cc1ccc2oc(=O)c(S(=O)(=O)Nc3ccc(S(N)(=O)=O)cc3)c(O)c2c1` [7b, 4-Hydroxy-6-methyl-2-oxo-N-(4-sulfamoylphenyl)-2H-chromene-3-sulfonamide], the melting point fell in the range of 241 to 243 °C. The “IZ against the tested microorganisms” value in data set [1] is less than 15 mm. In addition, the zone of inhibition at 10000 µg/mL in [2] is less than 15 mm. For the same molecule, the IC50 in data set [3] (mean of two determinations) is 8.24 µM. Also, in data set [3] (ratio of COX-1/COX-2 IC50), the “SI, selectivity index (COX-1/COX-2)” value was 5.78. Moreover, the zone of inhibition at 10000 µg/mL in data set [4] is less than 15 mm. For the same molecule, the zone of inhibition at 10000 µg/mL in data set [5] was less than 15 mm. In [6], the zone of inhibition at 10000 µg/mL was less than 15 mm. Besides, the zone of inhibition at 10000 µg/mL in data set [7] was less than 15 mm. Also, the zone of inhibition at 10000 µg/mL in data set [8] was less than 15 mm. For the same molecule, the IC50 in data set [9] amounted to 47.6 µM. The “% Inhibition (proteinase)” value in [10] was 5.93 ± 2.11%. Also, the half-inhibitory concentration (IC50) in [11] is 61.78 ± 2.719 µg/mL (≈ 151 µM). Further, in data set [12], the zone of inhibition at 10000 µg/mL is less than 15 mm.
